Here are results for 13 compounds from patent US7884242B2, “N-heterocyclylphthaldiamides as insecticides” (Bayer CropScience AG, priority 2004, dated 2011).

The chromatographic logP is lipophilicity estimated from chromatographic retention. Read a high chromatographic logP as a more lipophilic compound.

The structures appear in SMILES notation.

Series [1] concerns caterpillars of the fall army worm (Spodoptera frugiperda). Put plainly: Spodoptera frugiperda test (spray treatment). The series is classed as in vivo. The following applies: for pest or weed control at 4 g/ha: Spodoptera frugiperda, 168 h, spray treatment, maize leaf sections, after 7 d, read-out: Death rate in % after 7d; for activity in Spodoptera frugiperda test (spray treatment): statement in words. On the procedure: [table] For the preparation of a suitable active compound formulation 1 part by weight of the active compound is mixed with the above amounts of solvent and emulsifier and the concentrate is diluted to the desired concentration with water containing emulsifier. Maize leaf sections (Zea mays) are sprayed with an active compound preparation of the desired concentration and after drying infected with caterpillars of the fall army worm (Spodoptera frugiperda). After the desired time the activity in % is determined. Here 100% means that all caterpillars were killed; 0% means that no caterpillars were killed.

The subject of series [2] is green peach aphid (Myzus persicae). Put plainly: Myzus test (spray treatment). The series is classed as in vivo. To be noted: for pest or weed control at 100 g/ha: Myzus persicae, in Brassica oleracea, 120 h, spray treatment, China cabbage slices, after 5 d, read-out: Death rate in % after 5d; for activity in Myzus test (spray treatment): statement in words. Here is the method:
[table] For the preparation of a suitable active compound formulation 1 part by weight of the active compound is mixed with the above amounts of solvent and emulsifier and the concentrate is diluted to the desired concentration with water containing emulsifier. China cabbage slices (Brassica pekinensis) that are infected with all stages of the green peach aphid (Myzus persicae) are sprayed with an active compound preparation at the desired concentration. After the desired time the activity in % is determined. Here 100% means that all aphids were killed; 0% means that no aphids were killed.

Series [3] relates to larvae of the mustard leaf beetle (Phaedon cochleariae). Put plainly: Phaedon test (spray treatment). The following applies: for activity in Phaedon test (spray treatment): statement in words. Format: in vivo. On the procedure: [table] For the preparation of a suitable active compound formulation 1 part by weight of the active compound is mixed with the above amounts of solvent and emulsifier and the concentrate is diluted to the desired concentration with water containing emulsifier. China cabbage slices (Brassica pekinensis) are sprayed with an active compound preparation of the desired composition and after drying infected with larvae of the mustard leaf beetle (Phaedon cochleariae). After the desired time the activity in % is determined. Here 100% means that all beetle larvae were killed; 0% means that no beetle larvae were killed.

Series [4] in a line: log P determination by HPLC on reverse phase column, pH 2.3. To be noted: reverse phase HPLC column (C 18), reverse phase column (C 18), pH 2.3, 43° C. The series is classed as physicochemical. Here is the method:
The determination of the log P values given in the above table and preparation examples is carried out in accordance with EEC directive 79/831 Annex V.A8 by HPLC (High Performance Liquid Chromatography) on a reverse phase column (C 18). Temperature: 43° C. The determination is carried out under acidic conditions at pH 2.3 with 0.1% aqueous phosphoric acid and acetonitrile as eluents; linear gradient of 10% acetonitrile to 95% acetonitrile. Calibration was is carried out with unbranched alkan-2-ones (with 3 to 16 carbon atoms) of known log P values (Determination of log P values by the retention times by linear interpolation between two sequential alkanones).

The subject of series [5] is caterpillars of the diamond back moth (Plutella xylostella). Put plainly: Plutella test. The series is classed as in vivo. Here is the method: [table] For the preparation of a suitable active compound formulation 1 part by weight of the active compound is mixed with the above amounts of solvent and emulsifier and the concentrate is diluted to the desired concentration with water containing emulsifier. Cabbage leaves (Brassica oleracea) are treated by dipping into the active compound preparation of the desired concentration and infected with caterpillars of the diamond back moth (Plutella xylostella) while the leaves were still wet. After the desired time the death rate is determined as %. Here 100% means that all caterpillars were killed; 0% means no caterpillars were killed.

Series [6] relates to cotton aphid (Aphis gossypii). Kind of series: Aphis gossypii test. The series is classed as in vivo. Here is the method:
[table] For the preparation of a suitable active compound formulation 1 part by weight of the active compound is mixed with the above amounts of solvent and emulsifier and the concentrate is diluted to the desired concentration with water containing emulsifier. Cotton leaves (Gossypium hirsutum) heavily infested with the cotton aphid (Aphis gossypii) are treated by immersion in the active compound preparation at the desired concentration. After the desired time the death rate in % is determined. Here 100% means that all aphids were killed; 0% means that no aphids were killed.

The mark [7] stands for this setting: Phaedon cochleariae, 168 h, spray treatment, China cabbage slices, after 7 d, read-out: Death rate in % after 7d.

On to `CSC[C@H](C)NC(=O)c1c(Cl)cccc1C(=O)Nc1ccc(Cn2nc(C(F)(F)F)cc2C(F)(F)F)nc1C` [Example 1, N^1-(6-{[3,5-bis(trifluoromethyl)-1H-pyrazol-1-yl]methyl}-2-methylpyridin-3-yl)-3-chloro-N^2-[(1S)-1-methyl-2-(methylthio)ethyl]phthalamide], for which, in series [1], the pest or weed control at 4 g/ha stood at 100% and the “activity in Spodoptera frugiperda test (spray treatment)” value (“activity in Spodoptera frugiperda test” below) is “good activity”. In addition, in series [2], the pest or weed control at 100 g/ha turned out to be 100% and the “activity in Myzus test (spray treatment)” value is “good activity”. For the same compound, the pest or weed control at 100 g/ha in series [3] (setting [7]) is 100%. Besides, the “activity in Phaedon test (spray treatment)” value (“activity in Phaedon test” below) in series [3] is “good activity”.

`Cc1nc(Cn2nc(C(F)(F)F)cc2C(F)(F)F)ccc1NC(=O)c1cccc(Cl)c1C(=O)N[C@@H](C)C[S+](C)[O-]` (stereo partly drawn) [Example 2, N^1-(6-{[3,5-bis(trifluoromethyl)-1H-pyrazol-1-yl]methyl}-2-methylpyridin-3-yl)-3-chloro-N^2-[(1S)-1-methyl-2-(methylsulphinyl)ethyl]phthalamide]: in series [1], the pest or weed control at 4 g/ha was determined as 100% and the “activity in Spodoptera frugiperda test” value is reported as “good activity”. Also, in series [2], the pest or weed control at 100 g/ha was 100% and the “activity in Myzus test (spray treatment)” value is listed as “good activity”. In addition, in series [3] (setting [7]), the pest or weed control at 100 g/ha turned out to be 100%. Further, in series [3], the “activity in Phaedon test” value is reported as “good activity”.

Take `Cc1nc(Cn2nc(C(F)(F)F)cc2C(F)(F)F)ccc1NC(=O)c1cccc(I)c1C(=O)N[C@@H](C)C[S+](C)[O-]` (stereo partly shown) [Example 7]: in series [1], the pest or weed control at 4 g/ha worked out at 100% and the “activity in Spodoptera frugiperda test” value is given as “good activity”. The same compound displayed a chromatographic logP in series [4] of 2.42. In series [2], the pest or weed control at 100 g/ha turned out to be 90% and the “activity in Myzus test (spray treatment)” value is reported as “good activity”. For the same compound, the pest or weed control at 100 g/ha in series [3] (setting [7]) was 90%. Moreover, the “activity in Phaedon test” value in series [3] is reported as “good activity”.

For the compound `Cc1nc(Cn2nc(C(F)(F)F)cc2C(F)(F)F)ccc1NC(=O)c1cccc(I)c1C(=O)N[C@@H](C)CS(C)(=O)=O` [Example 8], in series [1], the pest or weed control at 4 g/ha was 100% and the “activity in Spodoptera frugiperda test” value is given as “good activity”. The chromatographic logP in series [4] was 2.8. Moreover, in series [2], the pest or weed control at 100 g/ha was 100% and the “activity in Myzus test (spray treatment)” value is “good activity”. Further, in series [3] (setting [7]), the pest or weed control at 100 g/ha worked out at 100%. Besides, the “activity in Phaedon test” value in series [3] was “good activity”.

For `Cc1nc(Cn2nc(C(F)(F)F)nc2C(F)(F)F)ccc1NC(=O)c1cccc(I)c1C(=O)N[C@@H](C)C[S+](C)[O-]` (stereo partly shown) [Example 13], in series [1], the pest or weed control at 4 g/ha worked out at 100% and the “activity in Spodoptera frugiperda test” value is “good activity”. This compound registered a chromatographic logP in series [4] of 2.28. The “Death rate in % after 7d” value in series [5] (0.16 ppm, cabbage leaves dipped, after 7 d) was 95%. Further, the “activity in Plutella test” value in series [5] (statement in words) was “good activity”. Moreover, in series [2], the pest or weed control at 100 g/ha came to 100% and the “activity in Myzus test (spray treatment)” value is reported as “good activity”. Also, the pest or weed control at 100 g/ha in series [3] (setting [7]) was found to be 100%. For the same compound, in series [3], the “activity in Phaedon test” value is recorded as “good activity”.

With `CSC[C@H](C)NC(=O)c1c(Cl)cccc1C(=O)Nc1ccc(Cn2nc(C(F)(F)F)nc2C(F)(F)F)nc1C` [Example 14], in series [1], the pest or weed control at 4 g/ha stood at 100% and the “activity in Spodoptera frugiperda test” value was “good activity”. Further, the chromatographic logP in series [4] came out at 3.39. Also, in series [2], the pest or weed control at 100 g/ha stood at 90% and the “activity in Myzus test (spray treatment)” value was “good activity”. Also, in series [3] (setting [7]), the pest or weed control at 100 g/ha amounted to 90%. In addition, the “activity in Phaedon test” value in series [3] is recorded as “good activity”.

As to `Cc1nc(Cn2nc(C(F)(F)F)nc2C(F)(F)F)ccc1NC(=O)c1cccc(Cl)c1C(=O)N[C@@H](C)C[S+](C)[O-]` (stereo partly shown) [Example 15], in series [1], the pest or weed control at 4 g/ha came to 100% and the “activity in Spodoptera frugiperda test” value was “good activity”. Further, the chromatographic logP in series [4] turned out to be 2.17. Moreover, in series [2], the pest or weed control at 100 g/ha is 100% and the “activity in Myzus test (spray treatment)” value was “good activity”. In addition, the pest or weed control at 100 g/ha in series [3] (setting [7]) was 100%. Further, in series [3], the “activity in Phaedon test” value is recorded as “good activity”.

In the case of `CSC[C@H](C)NC(=O)c1c(I)cccc1C(=O)Nc1cnc(Cn2nc(C(F)(F)F)cc2C(F)(F)F)nc1C` [Example 19], in series [1], the pest or weed control at 4 g/ha is 83% and the “activity in Spodoptera frugiperda test” value is reported as “good activity”. In series [4], this compound yielded a chromatographic logP of 3.55. For the same compound, in series [2], the pest or weed control at 100 g/ha amounted to 100% and the “activity in Myzus test (spray treatment)” value is reported as “good activity”.

As to `Cc1nc(Cn2nc(C(F)(F)C(F)(F)F)nc2C(F)(F)F)ncc1NC(=O)c1cccc(Cl)c1C(=O)N[C@@H](C)C[S+](C)[O-]` (stereo partly shown) [Example 29], in series [1], the pest or weed control at 4 g/ha is 100% and the “activity in Spodoptera frugiperda test” value was “good activity”. In series [4], this compound displayed a chromatographic logP of 2.41. Besides, in series [2], the pest or weed control at 100 g/ha was 100% and the “activity in Myzus test (spray treatment)” value is “good activity”.

As for `CSC[C@H](C)NC(=O)c1c(Cl)cccc1C(=O)Nc1cnc(Cn2nc(C(F)(F)C(F)(F)F)nc2C(F)(F)F)nc1C` [Example 30], in series [1], the pest or weed control at 4 g/ha came out at 100% and the “activity in Spodoptera frugiperda test” value is recorded as “good activity”. Also, the chromatographic logP in series [4] was 3.62. Further, in series [2], the pest or weed control at 100 g/ha turned out to be 90% and the “activity in Myzus test (spray treatment)” value is recorded as “good activity”.

Turning to `CSC[C@H](C)NC(=O)c1c(Br)cccc1C(=O)Nc1cnc(Cn2nc(C(F)(F)C(F)(F)F)nc2C(F)(F)F)nc1C` [Example 31], in series [1], the pest or weed control at 4 g/ha turned out to be 100% and the “activity in Spodoptera frugiperda test” value is given as “good activity”. The chromatographic logP in series [4] was 3.67. In series [2], the pest or weed control at 100 g/ha came out at 100% and the “activity in Myzus test (spray treatment)” value was “good activity”.

Take `Cc1nc(Cn2nc(C(F)(F)F)cc2C(F)(F)F)ncc1NC(=O)c1cccc(Cl)c1C(=O)N[C@@H](C)CS(C)(=O)=O` [Example 34]: in series [1], the pest or weed control at 4 g/ha came to 100% and the “activity in Spodoptera frugiperda test” value was “good activity”. Besides, in series [4], the chromatographic logP was 2.56. The “activity in Myzus test (spray treatment)” value in series [2] is reported as “good activity”.

Turning to `Cc1nc(Cn2cc(C(F)(F)C(F)(F)F)c(C(F)(F)C(F)(F)F)n2)ncc1NC(=O)c1cccc(Cl)c1C(=O)N[C@@H](C)C[S+](C)[O-]` (stereo partly shown) [Example 65], in series [6] (100 ppm, cotton leaves immersed, after 7 d), the “Death rate in % after 7d” value is reported as 80%. Further, in series [6] (statement in words), the “activity in Aphis gossypii test” value is “good activity”. In addition, in series [1], the pest or weed control at 4 g/ha is 100% and the “activity in Spodoptera frugiperda test” value is on record as “good activity”. The compound further came in with a chromatographic logP in series [4] of 2.91. Besides, in series [2], the pest or weed control at 100 g/ha was 100% and the “activity in Myzus test (spray treatment)” value is reported as “good activity”. The pest or weed control at 4 g/ha in series [3] (Phaedon cochleariae, 168 h, 4 g/ha, spray treatment, China cabbage slices, after 7 d, read-out: Death rate in % after 7d) worked out at 100%. In addition, the “activity in Phaedon test” value in series [3] was “good activity”.
